Values quoted from earlier work in patent publication US20200078455A1, “MESOTHELIN VACCINE FOR OVARIAN CANCER PREVENTION” (SRI INTERNATIONAL, priority 2017, published 2020).

B1: Abagovomab (antibody, chains of the INN, looked up, V domains shown)
VH: QVKLQESGAELARPGASVKLSCKASGYTFTNYWMQWVKQRPGQGLDWIGAIYPGDGNTRYTHKFKGKATLTADKSSSTAYMQLSSLASEDSGVYYCARGEGNYAWFAYWGQGTTVTVSS
VL: DIELTQSPASLSASVGETVTITCQASENIYSYLAWHQQKQGKSPQLLVYNAKTLAGGVSSRFSGSGSGTHFSLKIKSLQPEDFGIYYCQHHYGILPTFGGGTKLEIK
notes: ovarian cancer vaccine that has been studied

Molecule	recurrence rate (compared with women who received a placebo)	immune response (women with ovarian cancer)	survival (women with ovarian cancer)
Oregovomab	no difference in the recurrence rate	elicit an immune response	–
B1	–	elicit an immune response	not clear that this leads to longer survival
